Measured values as given in patent publication US11306100B2, “Spirooxindole compounds as GSK3B inhibitors and process for preparation thereof” (COUNCIL OF SCIENTIFIC & INDUSTRIAL RESEARCH, priority 2017, dated 2022).

Assays:
PANC-1 cells [1] = assay: Cell viability, Sulforhodamine B assay; format: cell-based; conditions: for inhibition at 30 µM: Homo sapiens, PANC-1, 30 μM compound in combination with TRAIL (10 ηg/mL), read-out: inhibition of cell growth; for effectiveness against cell growth / sensitisation to TRAIL: in combination with TRAIL (10 ηg/mL), FIG. 3A
Protocol: Cell viability was measured using Sulforhodamine B assay. The cytotoxic effect of the compounds with GSK3β inhibitory potential was tested against PANC-1 cells. Initially, the PANC-1 cells were seeded in flat bottom 96-well plate (5000 cells/100 μL) in complete medium and cultured for 18 hrs under standard conditions. After 18 h the cells were treated with either the different concentration of compounds, standard drugs or DMSO as solvent control. The final DMSO concentration to cells was maintained <2% in all cytotoxic assays. Each compound was tested in triplicate and the cytotoxicity was determined as the average of that triplicate. Further, the plates were incubated for another 48 h in an incubator maintained at 37° C. with a constant supply of 5% CO2. The cells were fixed using 10% TCA and incubated for 1 h at 4° C. Then the plates were rinsed carefully with MQ water and air dried at room temperature. To all the wells of MTP plate 0.057% SRB solution was added and kept for approximately 30 min before it was rinsed off using 1% acetic acid. The plates were then air dried and 100 μL of 10 mM tris base was added to each well to solubilize the SRB before absorbance was measured at 510 nm. The measure of absorbance is directly proportional to cell growth and is thus used to calculate % reduction in the rate of cell proliferation according to control DMSO treated cells. All experiments were performed in triplicates; mean % age proliferation values with ±SD were plotted here.

PANC-1 cells [2] = assay: Cell cycle analysis / cell death by PI uptake, flow cytometry; format: cell-based; conditions: for cell death by FACS: 25 uM compound; for cell death (% of cells in subG1): in combination with TRAIL versus compounds alone or TRAIL alone
Protocol: To determine effect of GSK3β inhibitors on cell death and/or cell cycle progression, PANC-1 cells were treated with identified molecules with or without TRAIL. Upon treatment with compounds in combination with TRAIL, PANC-1 cell death was determined with propidium iodide (PI) uptake measured by Flow cytometry. Treated cells were harvested in cold PBS and fixed in 70% ethanol at −20° C. for overnight. The fixed cells were by centrifugation and re-suspended in PI ([…]) solution containing RNase (0.1 mg/mL) and Triton X-100 (0.05%). The cells were incubated in dark for 1 h at room temperature. The excess PI was washed out using PBS, the resultant PI uptake was analyzed by FACS Caliber System (BD Bio-science, Erembodegem, Belgium) in an FL-2 fluorescence detector (10000 events were recorded for each condition). Flow cytometry data was analyzed using FCS express 4 software (De Novo Software, Los Angeles, Calif., USA).

| Compound | inhibition at 30 µM (PANC-1 cells [1]) | effectiveness against cell growth / sensitisation to TRAIL (PANC-1 cells [1]) | cell death by FACS (PANC-1 cells [2]) | cell death (% of cells in subG1) (PANC-1 cells [2]) |
| --- | --- | --- | --- | --- |
| CCOC(=O)c1ccc(-c2ccccc2OCc2cn(CC3CC4(CO3)C(=O)Nc3ccccc34)nn2)nc1C (centres unmarked) [AB-O, Ethyl 2-methyl-6-(2-((1-((2′-oxo-4,5-dihydro-2H-spiro[furan-3,3′-indoline]-5-yl)methyl)-1H-1,2,3-triazol-4-yl)methoxy)phenyl)nicotinate] | 50% | more effective | cell death even at 25 uM | more cell death |
| COc1ccccc1N1CCN(CC2CC3(CO2)C(=O)Nc2ccccc23)CC1 (centres unmarked) [AB-U, 5-((4-(2-Methoxyphenyl)piperazin-1-yl)methyl)-4,5-dihydro-2H-spiro[furan-3,3′-indolin]-2′-one] | 50% | more effective | cell death even at 25 uM | more cell death |
